Reference: ChEMBL document CHEMBL2074451, “ATP- and glutathione-dependent transport of chemotherapeutic drugs by the multidrug resistance protein MRP1” (Br J Pharmacol, 1999)

Legend:
[1] = target: Multidrug resistance-associated protein 1 (Homo sapiens, UniProt P33527); assay: TP_TRANSPORTER: uptake in membrane vesicles from GLC4/ADR cells; type: functional, cell membranes, Membrane vesicle; conditions: glc-4/adr
[2] = target: ATP-dependent translocase ABCB1 (Homo sapiens, UniProt P08183); assay: TP_TRANSPORTER: uptake in A2780 and A2780AD cells; type: functional, cell-based
Chain of ATP-dependent translocase ABCB1 (P08183 whole entry): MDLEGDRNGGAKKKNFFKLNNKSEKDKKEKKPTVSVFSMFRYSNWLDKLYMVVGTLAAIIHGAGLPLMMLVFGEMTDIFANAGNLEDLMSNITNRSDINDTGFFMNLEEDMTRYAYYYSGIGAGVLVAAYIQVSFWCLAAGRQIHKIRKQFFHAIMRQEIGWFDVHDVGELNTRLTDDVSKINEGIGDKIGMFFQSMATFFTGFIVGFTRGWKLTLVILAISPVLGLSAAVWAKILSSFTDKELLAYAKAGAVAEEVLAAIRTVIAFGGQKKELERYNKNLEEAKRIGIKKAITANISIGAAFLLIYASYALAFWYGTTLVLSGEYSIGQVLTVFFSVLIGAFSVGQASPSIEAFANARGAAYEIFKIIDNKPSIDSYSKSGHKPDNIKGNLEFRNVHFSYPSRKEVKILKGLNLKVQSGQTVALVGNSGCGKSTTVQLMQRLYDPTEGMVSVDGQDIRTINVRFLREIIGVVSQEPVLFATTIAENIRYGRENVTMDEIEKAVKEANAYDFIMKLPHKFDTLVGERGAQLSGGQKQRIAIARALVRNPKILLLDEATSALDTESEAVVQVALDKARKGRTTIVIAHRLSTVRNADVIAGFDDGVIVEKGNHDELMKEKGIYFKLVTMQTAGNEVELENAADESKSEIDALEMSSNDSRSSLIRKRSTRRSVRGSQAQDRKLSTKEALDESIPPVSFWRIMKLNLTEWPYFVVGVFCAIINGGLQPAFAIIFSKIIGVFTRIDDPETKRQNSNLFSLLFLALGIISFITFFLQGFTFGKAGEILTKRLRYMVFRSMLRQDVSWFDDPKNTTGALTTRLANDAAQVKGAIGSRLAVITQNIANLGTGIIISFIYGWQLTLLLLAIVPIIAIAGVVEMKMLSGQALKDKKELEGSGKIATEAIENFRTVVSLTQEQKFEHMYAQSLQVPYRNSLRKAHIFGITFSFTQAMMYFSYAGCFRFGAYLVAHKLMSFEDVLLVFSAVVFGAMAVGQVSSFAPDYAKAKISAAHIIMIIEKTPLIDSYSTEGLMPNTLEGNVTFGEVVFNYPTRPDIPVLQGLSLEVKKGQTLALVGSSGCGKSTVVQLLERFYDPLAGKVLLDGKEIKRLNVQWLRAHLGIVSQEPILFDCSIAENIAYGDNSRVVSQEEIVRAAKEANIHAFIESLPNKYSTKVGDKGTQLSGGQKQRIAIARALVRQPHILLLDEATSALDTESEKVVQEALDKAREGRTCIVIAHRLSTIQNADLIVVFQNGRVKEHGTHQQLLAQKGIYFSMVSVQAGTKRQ

Chain of Multidrug resistance-associated protein 1 (P33527 whole entry): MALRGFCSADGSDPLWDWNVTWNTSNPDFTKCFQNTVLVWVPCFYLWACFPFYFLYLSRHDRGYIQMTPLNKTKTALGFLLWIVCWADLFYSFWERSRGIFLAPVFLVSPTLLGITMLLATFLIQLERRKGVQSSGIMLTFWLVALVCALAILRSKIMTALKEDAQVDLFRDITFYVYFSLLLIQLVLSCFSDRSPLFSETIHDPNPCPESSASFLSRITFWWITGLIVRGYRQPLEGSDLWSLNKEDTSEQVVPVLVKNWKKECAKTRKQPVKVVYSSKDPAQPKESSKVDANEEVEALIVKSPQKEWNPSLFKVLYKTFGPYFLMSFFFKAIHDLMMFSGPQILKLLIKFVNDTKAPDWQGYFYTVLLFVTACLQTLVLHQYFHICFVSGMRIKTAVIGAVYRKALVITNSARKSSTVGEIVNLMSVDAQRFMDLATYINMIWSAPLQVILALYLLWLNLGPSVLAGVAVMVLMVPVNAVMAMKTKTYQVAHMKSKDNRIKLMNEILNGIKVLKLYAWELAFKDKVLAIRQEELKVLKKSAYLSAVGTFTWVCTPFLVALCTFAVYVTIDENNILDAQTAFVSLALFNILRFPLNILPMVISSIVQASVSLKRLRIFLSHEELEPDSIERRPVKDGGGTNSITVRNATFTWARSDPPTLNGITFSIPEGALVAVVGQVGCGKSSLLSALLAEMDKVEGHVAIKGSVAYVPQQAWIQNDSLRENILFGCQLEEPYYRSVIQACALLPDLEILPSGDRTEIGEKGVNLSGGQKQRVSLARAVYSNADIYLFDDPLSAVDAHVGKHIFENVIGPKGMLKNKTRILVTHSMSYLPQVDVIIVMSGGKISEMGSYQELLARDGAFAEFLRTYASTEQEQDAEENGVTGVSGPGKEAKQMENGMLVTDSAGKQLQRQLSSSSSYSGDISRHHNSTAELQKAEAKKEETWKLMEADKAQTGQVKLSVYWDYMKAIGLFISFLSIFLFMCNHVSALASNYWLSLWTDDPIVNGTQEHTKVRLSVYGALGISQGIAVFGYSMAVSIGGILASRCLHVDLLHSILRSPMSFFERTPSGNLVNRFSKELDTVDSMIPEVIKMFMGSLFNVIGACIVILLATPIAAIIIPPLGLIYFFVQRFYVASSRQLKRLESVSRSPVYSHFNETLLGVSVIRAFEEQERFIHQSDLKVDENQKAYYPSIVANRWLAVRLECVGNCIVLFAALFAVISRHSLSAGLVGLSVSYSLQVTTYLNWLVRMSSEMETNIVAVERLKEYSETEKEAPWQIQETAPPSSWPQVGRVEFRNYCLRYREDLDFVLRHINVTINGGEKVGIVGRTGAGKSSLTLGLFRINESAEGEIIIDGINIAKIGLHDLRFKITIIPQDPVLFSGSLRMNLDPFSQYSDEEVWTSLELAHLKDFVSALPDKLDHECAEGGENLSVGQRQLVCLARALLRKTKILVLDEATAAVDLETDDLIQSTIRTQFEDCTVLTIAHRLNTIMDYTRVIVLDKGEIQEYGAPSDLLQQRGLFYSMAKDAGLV

| Compound | Activity [1] | Activity [2] |
| --- | --- | --- |
| CC[C@]1(O)C[C@H]2CN(CCc3c([nH]c4ccccc34)[C@@](C(=O)OC)(c3cc4c(cc3OC)N(C=O)[C@H]3[C@@](O)(C(=O)OC)[C@H](OC(C)=O)[C@]5(CC)C=CCN6CC[C@]43[C@@H]65)C2)C1 [VINCRISTINE] | substrate [+] | – |
| CCC1C[N+]2(CCCC3(C)N=N3)C3CC45c6ccccc6N(C)C4C2CC1C3C5O (configuration not stated) | – | substrate [+] |
